Entries after “also recorded” stand apart in the source; their conditions may differ. Bounds are passed on as bounds.

Results on 13 compounds are retold here after patent publication US8148556B2, “Method of producing tibolone metabolites by fermentation with Rhizopus stolonifer” (priority 2007, dated 2012).

For data set [1], the system named is α-Glucosidase (E.C.3.2.1.20). Description: α-Glucosidase enzyme inhibition assay. As to conditions: for Active (activity against alpha-glucosidase enzyme): Table 1; for IC50: pH 6.9, 37° C., 0.7 mM PNP-G substrate, NA = inactive compounds. In kind it is biochemical. On the procedure: α-Glucosidase Enzyme Inhibition Assay
α-Glucosidase (E.C.3.2.1.20) enzyme inhibition assay has been performed according to the slightly modified method of Matsui et al. α-Glucosidase (E.C.3.2.1.20) from Saccharomyces sp. was purchased from Wako Pure Chemical Industries Ltd. (Wako 076-02841). The inhibition has been measured spectrophotometrically at pH 6.9 and at 37° C. using 0.7 mM p-nitrophenyl α-D glucopyranoside (PNP-G) as a substrate and 250 m units/mL enzyme in 50 mM sodium phosphate buffer containing 100 mM NaCl. […] The increment in absorption at 400 nm due to the hydrolysis of PNP-G by α-glucosidase was monitored continuously with the spectrophotometer (Molecular Devices, USA). The concentrations of the test compounds, which inhibited the hydrolysis of PNP-G by α-glucosidase by 50% (IC50), were determined by monitoring the effect of increasing the concentration of these compounds on the inhibition values. The IC50 values were then calculated using EZ-Fit enzyme kinetics program (Perrella Scientific Inc., Amherst, Mass., U.S.A.).

The target in the next data set is T1, enzyme tyrosinas (Homo sapiens, UniProt P14679).
T1 sequence (P14679 19-529): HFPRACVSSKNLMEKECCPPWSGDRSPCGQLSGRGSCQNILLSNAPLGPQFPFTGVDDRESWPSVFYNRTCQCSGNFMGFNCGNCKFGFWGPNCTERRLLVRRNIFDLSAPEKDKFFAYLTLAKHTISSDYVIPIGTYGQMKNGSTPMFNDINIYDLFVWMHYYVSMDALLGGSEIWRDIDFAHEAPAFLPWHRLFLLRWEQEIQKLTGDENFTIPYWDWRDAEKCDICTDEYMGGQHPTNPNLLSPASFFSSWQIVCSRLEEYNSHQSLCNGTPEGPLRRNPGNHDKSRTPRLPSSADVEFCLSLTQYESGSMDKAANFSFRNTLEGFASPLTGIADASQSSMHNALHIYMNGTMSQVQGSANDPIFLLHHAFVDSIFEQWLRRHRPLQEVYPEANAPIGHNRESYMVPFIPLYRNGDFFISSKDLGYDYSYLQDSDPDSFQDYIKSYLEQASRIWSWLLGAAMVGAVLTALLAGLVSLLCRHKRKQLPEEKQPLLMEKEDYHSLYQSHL
Nature of the data set: inhibitory activity against enzyme tyrosinas. In kind it is biochemical.

For `C#C[C@]1(O)CC[C@H]2[C@@H]3[C@H](C)CC4=C(CCC(=O)C4)[C@H]3CC[C@@]21C` [Compound 1, Tibolone], the “Active (activity against alpha-glucosidase enzyme)” value (from here on “Active”) in data set [1] is “No”.
Turning to `C#C[C@]1(O)CC[C@H]2[C@@H]3[C@H](C)CC4=C(CC[C@H](O)C4)[C@H]3CC[C@@]21C` [Compound 2, 3β-hydroxytibolone], in data set [1], the “Active” value is reported as “No”.
The same measure, in the same setting: the entry for `C#C[C@]1(O)CC[C@H]2[C@@H]3[C@H](C)CC4=C(CC[C@@H](O)C4)[C@H]3CC[C@@]21C` [Compound 3, 3α-hydroxytibolone] is “No”.
As for `C#CC1(O)CCC2C3C(C)CC4=CC(=O)C=CC4C3CCC21C` (stereo not drawn) [Compound 7, 7α-methyl-17α-ethynl-17β-hydroxy-19-norandrost-1,4-dien-3-one], in data set [1], the “inhibitory activity against α-Glucosidase enzyme (in words)” value is recorded as “significant activity”, the “Active” value is “Yes” and the IC50 was found to be 227 ± 0.02 µM.
The like results for `C#CC1(O)CCC2C3C(C)CC4=CC(=O)CCC4(O)C3CCC21C` (stereo not drawn) [Compound 8, 7α-methyl-17α-ethynl-10β,17β-dihydroxy-19-norandrost-4-en-3-one] were, in that order, “pronounced inhibitory activities”, “No” and 877 ± 0.03 µM.
Turning to `C#CC1(O)CC(O)C2C3C(C)CC4=C(CCC(=O)C4)C3C(O)CC21C` (stereo not drawn) [Compound 9, 7α-methyl-17α-ethynl-11α,15β,17β-trihydroxy-19-norandrost-5(10)-en-3-one], the “Active” value in data set [1] was “No”. Besides, the “inhibitory activity against enzyme tyrosinas (in words)” value at enzyme tyrosinas is “pronounced inhibitory activity”.
For `C#CC1(O)CC(O)C2C3C(C)C=C4CC(=O)CCC4C3C(O)CC21C` (stereo not drawn) [Compound 10, 7α-methyl-17α-ethynl-11α,15β,17β-trihydroxy-19-norandrost-5-en-3-one], in that order: “No” and “pronounced inhibitory activity”.
Regarding `C#CC1(O)CCC2C3C(C)C=C4CC(=O)CCC4C3CCC21C` (stereo not drawn) [Compound 11, 7α-methyl-17α-ethynl-17β-hydroxy-19-norandrost-5-en-3-one], in data set [1], the “Active” value is given as “No”.
`C#CC1(O)CCC2C3C(C)C(O)C4=CC(=O)CCC4C3CCC21C` (stereo not drawn) [Compound 12, 6β-Hydroxy-Δ^4-tibolone] had a melting point of 189 to 193 °C. Also, in data set [1], the “inhibitory activity against α-Glucosidase enzyme (in words)” value is given as “pronounced inhibitory activities; also recorded: pronounced inhibitory activity”, the “Active” value is listed as “Yes” and it took 653 ± 0.02 µM to reach half-maximal inhibition (IC50).
For `C#CC1(O)CCC2C3C(C)C(O)C4=CC(=O)CCC4C3CCC21C` (stereo not drawn) [Compound 13, 6α-Hydroxy-Δ^4-tibolone], in that order: 187 to 190 °C, “pronounced inhibitory activities; also recorded: pronounced inhibitory activity”, “Yes” and less than 70 µM.
Take `C#CC1(O)CC(O)C2C3C(C)CC4=CC(=O)CCC4C3CCC21C` (stereo not drawn) [Compound 14, 15α-Hydroxy-Δ^4-tibolone]: in data set [1], the “Active” value is “Yes” and the IC50 is less than 70 µM.
For the compound `C#CC1(O)CCC2C3C(C)C(O)C4=CC(=O)C=CC4C3CCC21C` (stereo not drawn) [Compound 15, 7α-methyl-17α-ethynl-6α,17β-dihydroxy-19-norandrost-1,4-dien-3-one], in data set [1], the “inhibitory activity against α-Glucosidase enzyme (in words)” value is given as “significant activity; also recorded: pronounced inhibitory activity”, the “Active” value was “Yes” and it took 340 ± 0.02 µM to reach half-maximal inhibition (IC50).
As to `C#C[C@]1(O)CC[C@H]2[C@@H]3[C@H](C)[C@@H](OC)C4=CC(=O)CC[C@@H]4[C@H]3CC[C@@]21C` [Compound 16, 7α-methyl-17α-ethynl-6β-methoxy-17β-hydroxy-19-norandrost-4-en-3-one], the “Active” value in data set [1] is recorded as “No”.

What is called IC50 is the concentration that inhibits the measured activity by half. Low readings indicate greater potency, high ones weaker potency. One may read the melting point as the temperature, or range, at which the solid turns liquid.
